Assay [1] concerns the target Neuronal acetylcholine receptor; alpha9/alpha10 (Homo sapiens, UniProt Q9GZZ6+Q9UGM1). In words: Antagonist activity at human alpha9alpha10 nAChR expressed in Xenopus laevis oocytes assessed as inhibition of ACh-induced current amplitude at -80 mV holding potential by two-electrode voltage clamp method. The format is cell-based, Oocyte. Background: Two-electrode voltage clamp holds a large cell at a set potential and records current.

The target of assay [2] is T1, Neuronal acetylcholine receptor; alpha9/alpha10 (Homo sapiens) (UniProt Q9UGM1+Q9GZZ6). In words: Antagonist activity at human alpha9alpha10 nAChR expressed in Xenopus laevis oocytes assessed as inhibition of ACh-induced current amplitude at -80 mV holding potential at 1 uM by two-electrode voltage clamp method. The format is cell-based. The conditions noted are these: Oocyte.

In assay [3] the target is T1, Neuronal acetylcholine receptor; alpha9/alpha10 (Homo sapiens). Kind of assay: Antagonist activity at human alpha9alpha10 nAChR expressed in Xenopus laevis oocytes assessed as inhibition of ACh-induced current amplitude at -80 mV holding potential at 10 uM by two-electrode voltage clamp method. It is filed as cell-based. The conditions noted are these: Oocyte.

Sequence of Neuronal acetylcholine receptor; alpha9/alpha10 (Q9UGM1 whole entry): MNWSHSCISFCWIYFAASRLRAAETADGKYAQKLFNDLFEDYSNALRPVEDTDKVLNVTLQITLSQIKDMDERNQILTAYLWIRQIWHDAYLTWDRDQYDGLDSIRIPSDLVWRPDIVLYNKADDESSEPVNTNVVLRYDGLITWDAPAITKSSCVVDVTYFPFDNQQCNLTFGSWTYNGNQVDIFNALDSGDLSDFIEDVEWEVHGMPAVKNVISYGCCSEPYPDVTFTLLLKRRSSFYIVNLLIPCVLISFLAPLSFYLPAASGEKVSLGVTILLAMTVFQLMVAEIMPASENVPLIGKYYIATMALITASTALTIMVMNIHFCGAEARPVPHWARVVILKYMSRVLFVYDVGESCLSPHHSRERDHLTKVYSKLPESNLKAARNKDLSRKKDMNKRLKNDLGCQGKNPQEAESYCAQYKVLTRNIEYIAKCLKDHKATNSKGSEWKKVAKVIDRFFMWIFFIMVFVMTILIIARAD
Sequence of Neuronal acetylcholine receptor; alpha9/alpha10 (Q9GZZ6 whole entry): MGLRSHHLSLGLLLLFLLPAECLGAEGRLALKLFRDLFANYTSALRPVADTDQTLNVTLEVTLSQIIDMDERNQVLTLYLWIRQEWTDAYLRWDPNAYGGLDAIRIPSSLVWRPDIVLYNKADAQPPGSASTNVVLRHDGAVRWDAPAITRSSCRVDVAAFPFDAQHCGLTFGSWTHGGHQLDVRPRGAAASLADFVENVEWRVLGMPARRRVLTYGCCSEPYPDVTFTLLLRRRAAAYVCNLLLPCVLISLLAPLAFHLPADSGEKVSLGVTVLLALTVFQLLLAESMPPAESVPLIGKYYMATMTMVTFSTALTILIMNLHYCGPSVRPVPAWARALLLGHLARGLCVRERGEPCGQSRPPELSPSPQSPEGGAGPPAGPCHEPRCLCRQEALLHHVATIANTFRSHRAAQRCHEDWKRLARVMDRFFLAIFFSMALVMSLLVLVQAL

Usually IC50 stands for the concentration that gives 50% inhibition. `N=C(N)NCCC[C@H](NC(=O)[C@H](CS)NC(=O)[C@H](CCCNC(=N)N)NC(=O)[C@H](Cc1ccc(O)cc1)NC(=O)[C@H](CCCNC(=N)N)NC(=O)[C@H](CS)NC(=O)[C@H](CCCNC(=N)N)NC(=O)[C@@H]1CCCN1C(=O)[C@H](CC(=O)O)NC(=O)[C@H](CO)NC(=O)[C@H](CS)NC(=O)[C@H](CS)NC(=O)CN)C(=O)O`: the 50% inhibitory concentration (IC50) in assay [1] came out at 500 nM.

A word on the inhibition: it is the change of the read-out against control, counted positive when it falls. As for `CC[C@H](C)[C@@H]1NC(=O)[C@H](CCC(=O)O)NC(=O)[C@@H]2CCCN2C(=O)[C@H](Cc2cnc[nH]2)NC(=O)[C@H](CC(=O)O)NC(=O)[C@H](Cc2ccc(O)cc2)NC(=O)[C@H](CC(N)=O)NC(=O)[C@@H]2CSSC[C@H](NC(=O)CN)C(=O)N[C@@H](CSSC[C@@H](C(N)=O)NC1=O)C(=O)N[C@@H](CO)C(=O)N[C@@H](CC(=O)O)C(=O)N1CCC[C@H]1C(=O)N[C@@H](CCCNC(=N)N)C(=O)N2`, the inhibition was found to be 20% in assay [2] and 0% in assay [3].
